The text below walks through data of US20250066292A1 (The Regents of the University of California, priority 2021, published 2025).

Data set [1] deals with cystinotic fibroblasts. The data set is described as follows: Glutathione and oxidized glutathione measurement during constant exposure. The class given is cell-based, human. Particulars: 100 uM; for oxidized glutathione (GSSG) / ratio of GSH/GSSG: versus 0-minute controls. On the procedure:
(§1) In vitro experiments with prodrugs in cystinotic fibroblasts. Fibroblasts from a de-identified cystinotic patient were split 3× from 2 plates into 12 plates. An experimental compound, BL-0856, was studied using the following protocols. Several timepoints of cystamine was also performed for comparison. The constant incubation time series for the new compound was: 0, 15 min, 30 min, 1 h, 3 h, and 5 h. The cystamine timepoints were 0, 30 min, 1 h, and 5 h. There was also a washout experiment done for 2 timepoints of the experimental compound, where after 3 hours of constant incubation, the media was exchanged with no compound, and incubated for either 1 h or 3 h. Harvesting of cells on the plate went as follows 2× washes with PBS that included 5 mM N-ethylmaleimide for trapping free thiol groups, and then scraping the plates with an acidified organic solvent extraction solution containing d4-NEM-cysteamine, d4-cystine, d8-cystamine, ^13C^15N NEM-glutathione, and ^13C, ^15N GSSG as internal standards. All samples were run on an API 4500 triple quadrupole LC-MS/MS, with selective reaction monitoring (SRM/MRM) for the following compounds of interest: cystine, cysteine, cystamine, reduced glutathione, oxidized glutathione (GSSG). […] All data fit well to single exponential curves (either decay or association), except where mentioned.
Glutathione and oxidized glutathione measurement during constant cystamine or BL-0856 exposure: Fibroblast cultures are exposed to 100 uM cystamine or 100 uM BL-0856 for the following timepoints: 0 min, […], 30 min, 1 h, 3 h, and 5 h. Following incubation, cells are washed 2× in PBS containing N-ethylmaleimide. After removing the wash, the cells are harvested on ice using 80% acetonitrile/1% formic acid, containing stable isotope internal standard for glutathione and oxidized glutathione.

Data set [2] has as its system cystinotic fibroblasts. The data set is described as follows: Cysteamine and cystamine (and prodrug) measurement during constant exposure. The class given is cell-based, human. The conditions noted are these: 100 uM; for Cysteamine levels (intracellular) / cystamine levels (intracellular): constant exposure 0 min to 5 h. The procedure:
as §1
Following incubation, cells are washed 2× in PBS containing N-ethylmaleimide.

For data set [3], the system named is circulating white blood cells. Particulars: taken regularly, measured in circulating white blood cells; cited from earlier work.
Data set [4] concerns cystinotic fibroblasts. Put plainly: Intracellular D2-cysteamine and prodrug levels following continual drug exposure. The class given is cell-based, human. Particulars: for intracellular D2-cysteamine levels: 100 uM in media, continual exposure. On the procedure: (§2) Cystine Depletion Study. Dermal cystinotic fibroblasts were cultured in medium containing BL0948, BL0940 or D4-Cystamine at the same 100 uM concentration:
Intracellular D2-cysteamine levels are measured following continual drug exposure (in media) to cystinotic fibroblasts (FIG. 7).

Data set [5] can be described thus: Prodrug stability and conversion in the medium and within the cell. The class given is in vitro ADME. An excerpt:
This prodrug analog, BL0940, is very stable both in the medium and within the cell.

Data set [6] concerns Dermal cystinotic fibroblasts. The data set is described as follows: Cystine Depletion Study with BL0948, BL0940 or D4-Cystamine. The class given is cell-based, human. The conditions noted are these: 100 uM in medium, continual exposure. The procedure: as §2
Intracellular cystine depletion over time. […] This likely represents a rapid exposure to D2-cysteamine after intracellular uptake. D4-cystamine will most likely reduce after crossing the cell membrane (peak level seen at 45 mins). BL0948 most likely has reduced to D2-cysteamine and the rearranged isomer in the medium before crossing the cell membrane. It is possible that after extracellular reduction that the ratio of D2-Cysteamine to rearranged analog is 10-20:1.

The subject of data set [7] is CDAHFD induced mouse models of NASH. Put plainly: Study 1 NASH/Mouse (CDAHFD diet). The class given is in vivo, mouse (C57BL/6 male). Particulars: 200 mg/kg once daily gavage for 2 weeks; for intrahepatic fibrosis: compared with control group. On the procedure:
Study 1—NASH/Mouse. Mice had at least received 8 weeks of CDAHFD diet before starting the study and continued to receive this diet during the next phase of the study. There were 4 mice per group (C57BL/6 male): • Control group (c1), water administered once daily by gavage for 2 weeks; • 200 mg/kg of Drug 0 once daily gavage therapy for 2 weeks; • 200 mg/kg of Drug 2 once daily gavage therapy for 2 weeks; • 200 mg/kg of Drug 4 once daily gavage therapy for 2 weeks. FIG. 10A depicts the study outline.

For data set [8] the test system is unchanged. Put plainly: Murine CDAHFD NASH Study 2 comparing prodrug analogs BL0940 and BL0948. The class given is in vivo, mouse (C57BL/6 male). The conditions noted are these: lower dose of BL0940, once daily gavage. The text has this: Mice had at least received 8 weeks of CDAHDF diet before starting the study and continued to receive this diet during the next phase of the study. There were 8 mice per group (C57BL/6 male).
• HD BL0940 (High dose) once daily by gavage therapy for 4 • LD BL0940 (low dose) once daily by gavage therapy for 4 • BL0948 once daily by gavage therapy for 4 weeks
The MW of BL0940 is higher than BL0948 and so a higher dose was given. That is, HD BL0940 and BL0948 had capability of releasing same number of D2-cysteamine molecules.

The subject of data set [9] is cystinotic fibroblasts. Put plainly: Cystine measurement after washout. The class given is cell-based, human. The conditions noted are these: 100 uM for 3 h, then washout in regular media 0 min, 1 h. The procedure: as §1, with “mentioned. […]” for “mentioned.”
For data set [10], the system named is cystinotic fibroblasts. Put plainly: Cysteine measurement during constant exposure. The class given is cell-based, human. Particulars: 100 uM, compared with cystamine. On the procedure:
as §1, with “mentioned. […]” for “mentioned.”

Data set [11] has as its system cystinotic fibroblasts. The data set is described as follows: Cystine measurement during constant cystamine or BL-0856 exposure. The class given is cell-based, human. The conditions noted are these: 100 uM, constant exposure 0 min to 5 h, compared with cystamine. On the procedure: Drug concentrations: BL-0856 powder was resuspended in water at a concentration of 25 mM. 40 μL of this solution was added to 10 mL of media for a final concentration of 100 uM.
Cystamine was made from high pH oxidation of cysteamine-bitartrate powder (w/Ammonium hydroxide), at a concentration of 25 mM. […] Since this was used for only several timepoints of a control, this was deemed sufficient for this purpose. The drug was also administered to cells at a final concentration of 100 uM.
In vitro experiments with prodrugs in cystinotic fibroblasts. Fibroblasts from a de-identified cystinotic patient were split 3× from 2 plates into 12 plates. An experimental compound, BL-0856, was studied using the following protocols. Several timepoints of cystamine was also performed for comparison. The constant incubation time series for the new compound was: 0, 15 min, 30 min, 1 h, 3 h, and 5 h. The cystamine timepoints were 0, 30 min, 1 h, and 5 h. There was also a washout experiment done for 2 timepoints of the experimental compound, where after 3 hours of constant incubation, the media was exchanged with no compound, and incubated for either 1 h or 3 h. […]

Data set [12] is described as follows: Stability of BL-0856 resuspended in water (LC-MS). The class given is physicochemical. The conditions noted are these: 25 mM in water, 1-week post-resuspension. On the procedure:
Drug concentrations: BL-0856 powder was resuspended in water at a concentration of 25 mM. 40 μL of this solution was added to 10 mL of media for a final concentration of 100 uM. […] Based upon the LC-MS profile, BL-0856 was likely >80-90% pure (unhydrolyzed) when used in the experiments. A method for the reduced intermediate form was also made, but none of it was found present in the neat standard.

The conditions of data set [13]: 400-1000 IU/day for 4-10 months, cited from earlier work.

`NCCSSCCN` [cystamine, reference compound]: in the data set on cystinotic fibroblasts [1], the “oxidized glutathione (GSSG)” value is recorded as “goes up at the first timepoint” and the “ratio of GSH/GSSG” value is on record as “lower throughout all timepoints”. Also, in the data set with cystinotic fibroblasts [2], the “Cysteamine levels (intracellular)” value is recorded as “nearly identical” and the “cystamine levels (intracellular)” value is reported as “higher”.

With `NCCS` [cysteamine], the “depletion of intracellular cystine” value in [3] is “up to 90%”.

Take `[2H]C([2H])(CN)SC(C)=O` [BL0948]: the “intracellular D2-cysteamine levels” value in the data set with cystinotic fibroblasts [4] is reported as “relatively high level”. For the same compound, the “conversion of prodrug to D2-cysteamine” value in [5] (portion rearranges to the N-acetylated isomer) is listed as “does not convert entirely to D2-cysteamine”. Besides, the “intracellular cystine depletion (effect on cystine levels)” value was “rapid and more profound” in data set [6]; “pronounced effect” in [6] (listed as BL-948).

For the compound `[2H]C(CN)SSC([2H])CN` (stereo not shown) [D2-cystamine], the intrahepatic fibrosis result in data set [7] is “significant reduction”. In data set [7] (versus control groups), the “markers of fibrosis (aSMA)” value is given as “significant reduction”, the “markers of inflammation (F4/80)” value was “significant reduction” and the “markers of inflammation (FIG. 12A-B)” value is recorded as “significant reduction”.

Turning to `[2H]C([2H])(CN)SSC[C@H](NC(C)=O)C(=O)OCC` [BL0940], the “intracellular D2-cysteamine levels” value in the data set on cystinotic fibroblasts [4] is “increase over time”. Moreover, the “intracellular levels of BL0940” value with cystinotic fibroblasts [4] (continued exposure, e.g. at 240 minute time points) is given as “increase over time”. Besides, the “stability in the medium and within the cell” value in data set [5] is “very stable”. Also, the “effect on markers of inflammation, remodeling and fibrosis” value in data set [8] is “did not have the same degree of effect”. Also, in data set [6], the “intracellular cystine depletion (effect on cystine levels)” value is “less of an effect compared to D4-cystamine”.

With `Cl.Cl.Cl.NCCSSC[C@H](N)C(=O)SCCN` [BL-0856, (S)-3-((2-ammonioethyl)disulfaneyl)-1-((2-ammonioethyl)thio)-1-oxopropan-2-aminium chloride], the cystine reaccumulation rate result in the data set on cystinotic fibroblasts [9] is on record as “comparable to cystamine”. Besides, the glutathione result with cystinotic fibroblasts [1] (between the 2 drug forms) is recorded as “no obvious differences”. For the same compound, in the data set with cystinotic fibroblasts [1], the “oxidized glutathione (GSSG)” value was “goes up at the first timepoint” and the “ratio of GSH/GSSG” value is “lower throughout all timepoints”. For the same compound, the “cysteine (intracellular)” value in the data set with cystinotic fibroblasts [10] is “higher”. Moreover, the cystine depletion rates result in the data set on cystinotic fibroblasts [11] was “nearly identical”. Moreover, the “BL-0856 and the thiol reduced intermediate in cells” value in the data set with cystinotic fibroblasts [2] (any of the timepoints, LC-MS/MS) was “not found at high enough levels to be identified”. For the same compound, in the data set with cystinotic fibroblasts [2], the “Cysteamine levels (intracellular)” value is given as “nearly identical” and the “cystamine levels (intracellular)” value is “some cystamine still exists”. Also, the “content of resuspended drug (stability in water)” value in data set [12] is “contained cysteamine and cystamine”.

For vitamin E, the “mean AST levels after treatment” value in data set [13] (decreased from 104±61 IU/L) was 33±11 IU/L. In [13] (decreased from 175±106 IU/L), the “mean ALT levels after treatment” value was 40±26 IU/L.

On to `[2H]C([2H])(CN)SSC([2H])([2H])CN` [D4-cystamine], for which, in data set [7], the intrahepatic fibrosis result is given as “significant reduction”.
